Laboratory results from patent US20050256208A1, “Pharmaceutical composition containing bakuchiol for treating woman breast cancer” (Sinphar Pharmaceutical Co., Ltd., priority 2004, published 2005).
Values after ≈ are worked out from the molar mass of the structure shown.

Tests used:
[1] = tested on: five different human cancer cells: lung (A549), ovary (SK-OV-3), skin (SK-MEL-2), central nervous system (XF498), large intestine (HCT); settings: five human cancer cells A549, SK-OV-3, SK-MEL-2, XF498, HCT; Arch. Pharm. Res. 15, 356-359 (1992); cited from earlier work
[2] = tested on: ovariectomized female Wistar rats (osteoporosis caused by estrogen deficiency); experiment: Ovariectomized rat osteoporosis model, apparent bone density of tibia; assay type: in vivo; settings: two months, mean value, OVX group 1.549, Sham 1.589
Description: The purpose of this example is to show the potency of bakuchiol in treating osteoporosis, wherein ovary of a female rat is removed to stimulate osteoporosis caused by estrogen deficiency.
The female Wistar rats of 16 weeks old (unless specified in the other experiment description) were obtained from the stock reared by the Animal breeding center, National Scientific Council in Taipei. These rats were grouped by weights matched in order to distribute the physiological response variation from rats evenly into each group. These rats were grouping as follows: • Baseline group fed with no drug added food (n=8) • Sham operation group fed with no drug added food (Sham) (n=10) • Ovariectomy operation group fed with no drug added food (OVX) (n=8) • Ovariectomy operation group fed with Drug A (5 mg/kg) added food (OVX+A) (n=9) • Ovariectomy operation group fed with Drug B (15 mg/kg) added food (OVX+B) (n=9)
Ovariectomy (removal of ovaries) operation: Ovariectomy was induced using a protocol similar to that described by Wronski et al (Wronski et al, Endocrinology, 123(2), 681-86 (1988)). […]
The whole tibia and femur were stripped off attached muscles and ligaments after sacrifice. […] The weight of bone measured in the air was marked as W-air. […] The apparent bone density was calculated as [W-air/(W-air minus W-water)] […]

[3] = tested on: human breast cancer cell line MDA-MB231 (estrogen receptor negative); experiment: In vitro cytotoxicity assay (CCK-8), MDA-MB231; assay type: cell-based; settings: MDA-MB-231, MDA-MB231 cells, 48 hours incubation, read-out: 50% inhibition of cell growth concentration (IC50)
Description: (§1) Materials: DMEM (medium), RPMI (medium), L-glutamine, penicillin, streptomycin and FBS (fetal bovine serum) were obtained from Gibco (NY, USA). Culture plasticware was purchased from Corning (MA, USA). […] All other chemicals used were of reagent grade and were purchased from Sigma or E. Merck (Germany).
(§2) Cell lines and cell cultures: The human breast cancer cell lines T47D and MDA-MB231 were obtained from American Type Culture Collection (ATCC). Of both cancer cells, T47D is estrogen receptor positive, and MDA-MB231 is estrogen receptor negative. Cells were cultured at 37° C. in RPMI medium containing 10% charcoal-dextran stripped fetal bovine serum for T47D cells and in DMEM medium containing 10% charcoal-dextran stripped fetal bovine serum for MDA-MB231 cells with 5% CO2. The cell proliferation was determined by counting the viable cells with trypan blue exclusion.
(§3) Cytotoxicity assay: Dispense 198 μl of cell suspension (20,000 cells for T47D per well and 10,000 cell for MDA-MB231 per well) in a 96-well plate and pre-incubate the plate for 24 hours in an incubator at 37° C. with humidified 5% CO2. […] After plate was incubated for 48 hours in the incubator, media were aspirated of and new media (100 μl) were added and incubated for 1 more hour. […] Measure the absorbance at 450 nm using a ELISA reader.

[4] = tested on: human breast cancer cell line T47D (estrogen receptor positive); experiment: In vitro cytotoxicity assay (CCK-8), T47D; assay type: cell-based; settings: T47D cells, 48 hours incubation, read-out: 50% inhibition of cell growth concentration (IC50)
Description: as §1, §2, §3

[5] = tested on: ovariectomized female Wistar rats (osteoporosis caused by estrogen deficiency); experiment: Ovariectomized rat osteoporosis model, bone histomorphometry of proximal tibia; assay type: in vivo; settings: two months, mean value; for Erosion surface (ES/BS, %) of proximal tibia: OVX group 5.8%, Sham 4.7%; for Bone volume % (BV/TV) of proximal tibia head trabecular bone: OVX group 12.50%, Sham 29.50%
Description: The purpose of this example is to show the potency of bakuchiol in treating osteoporosis, wherein ovary of a female rat is removed to stimulate osteoporosis caused by estrogen deficiency. The female Wistar rats of 16 weeks old (unless specified in the other experiment description) were obtained from the stock reared by the Animal breeding center, National Scientific Council in Taipei. These rats were grouped by weights matched in order to distribute the physiological response variation from rats evenly into each group. These rats were grouping as follows: • Baseline group fed with no drug added food (n=8) • Sham operation group fed with no drug added food (Sham) (n=10) • Ovariectomy operation group fed with no drug added food (OVX) (n=8) • Ovariectomy operation group fed with Drug A (5 mg/kg) added food (OVX+A) (n=9) • Ovariectomy operation group fed with Drug B (15 mg/kg) added food (OVX+B) (n=9) Ovariectomy (removal of ovaries) operation: Ovariectomy was induced using a protocol similar to that described by Wronski et al (Wronski et al, Endocrinology, 123(2), 681-86 (1988)). During the experiments, the rats were housed in hanging grid cages in groups of two at 21° C. with a 12 hours dark cycle. Food (Rat-mouse diet III, adequate in 1% of calcium content and 1.2% of phosphate content, Purina, USA) was administered by paired feeding between the experimental and control groups. Pair-feeding was carried out by calculating the average amount of food intake in the Sham group. So give the same amount of food to the OVX, OVX+A (5 mg/kg), OVX+B (15 mg/kg) group animals the following day. These animals were fed with a period of two months except for the baseline group which were killed on the very day of doing ovariectomy or sham operation. Rats of OVX+A and OVX+B groups were fed with the usual food chuck but added certain amount of compound A and B in it respectively. Water was given ad libitum to all rats. The test drug was weighted according to dose of 5 mg/kg and 15 mg/kg, and added into the ususal food chuck powder and mixed with 10% starch paste. After fully mixed, these chuck powder were made into mass manually and dried by air flow oven. The food with added drug to rats was performed by single blind method. These labeling and bone histomorphometry assessment were done based on standard procedure in bone research (Lin et al, Calcif. Tissue Int., 67, 373-377 (2000)). Specimen were prestained with Villanueva bone stain, then […] and embedded in London resin. Undecalcified sections of 7 μm thick were cut using Jung-K microtome (Leica Ltd, USA) and treated with Villanueva stain for observation under light microscopy. Seven μm thick unstained sections were prepared for fluorescent microscopy and assessed with program Osteomeasure (3.0 version, Atlanta, USA). […]

[6] = OVX + B group, 15 mg/kg in food

C=C[C@@](C)(/C=C/c1ccc(O)cc1)CCC=C(C)C [Bakuchiol, bakuchiol]
average inhibitory concentration (IC50) [1]: 10˜15 μg/cc
Bone apparent density of tibia ([2]; OVX + A group, 5 mg/kg in food): 1.582 gm/cm^3
Bone apparent density of tibia [2, 6]: 1.587 gm/cm^3
IC50 [3]: 0.62 µg/mL (≈ 2.42 µM)
IC50 [4]: 5 µg/mL (≈ 19.5 µM)
Erosion surface (ES/BS, %) of proximal tibia ([5]; OVX + A group, 5 mg/kg in food): 5.0%
Bone volume % (BV/TV) of proximal tibia head trabecular bone ([5]; OVX + A group, 5 mg/kg in food): 19.80%
Erosion surface (ES/BS, %) of proximal tibia [5, 6]: 4.8%
Bone volume % (BV/TV) of proximal tibia head trabecular bone [5, 6]: 20.11%
